Assay results from article PMC11822212, “High-throughput screening identifies Aurora kinase B as a critical therapeutic target for Merkel cell carcinoma” (Nature Communications, 2025).
Counter-ions that a name gives are not always drawn. Like-named read-outs stand apart in the source and are kept apart here.

Legend:
[1] = tested on: MCC13 cells (VN-MCC); assay: qHTS cell viability (CellTiter-Glo, 72 h; primary and follow-up small molecule screen); assay type: cell-based, human
[2] = tested on: MKL-1 cells (VP-MCC); assay: as above; assay type: cell-based, human
[3] = tested on: NIH-3T3 cells; assay: qHTS cell viability (CellTiter-Glo, 72 h; primary screen), control cell line; assay type: cell-based, mouse
[4] = tested on: CRL-7250 cells; assay: as above; assay type: cell-based
[5] = tested on: HEK293T cells; assay: as above; assay type: cell-based, human
[6] = tested on: MCC26 cells (VN-MCC); assay: qHTS cell viability (CellTiter-Glo, 72 h; primary and follow-up small molecule screen); assay type: cell-based, human
[7] = tested on: MKL-2 cells (VP-MCC); assay: as above; assay type: cell-based, human
[8] = tested on: UISO cells (VN-MCC); assay: as above; assay type: cell-based, human
[9] = tested on: HACAT cells; assay: qHTS cell viability (CellTiter-Glo, 72 h; primary screen), control cell line; assay type: cell-based, human
[10] = tested on: WAGA cells (VP-MCC); assay: qHTS cell viability (CellTiter-Glo, 72 h; primary and follow-up small molecule screen); assay type: cell-based, human
[11] = area under the dose-response curve, MCC13 cells, AUC<450 = reduced viability
[12] = area under the dose-response curve, MKL-1 cells, AUC<450 = reduced viability
[13] = area under the dose-response curve, NIH3T3 control cells, AUC<450 = reduced viability
[14] = area under the dose-response curve, CRL7250 control cells, AUC<450 = reduced viability
[15] = area under the dose-response curve, HEK293T control cells, AUC<450 = reduced viability
[16] = area under the dose-response curve, MCC26 cells, AUC<450 = reduced viability
[17] = area under the dose-response curve, MKL-2 cells, AUC<450 = reduced viability
[18] = area under the dose-response curve, UISO cells, AUC<450 = reduced viability
[19] = area under the dose-response curve, HACAT control cells, AUC<450 = reduced viability
[20] = area under the dose-response curve, WAGA cells, AUC<450 = reduced viability
[21] = primary high-throughput screen, viability 72 h, n = 1

C[C@H](CCC(=O)O)[C@H]1CC[C@H]2[C@@H]3[C@H](O)C[C@@H]4C[C@H](O)CC[C@]4(C)[C@H]3CC[C@]12C [Chenodeoxycholic acid]
MCC13_AUC [1, 11]: 458.762 | MKL1_AUC [2, 12]: 439.87 | NIH3T3_AUC [3, 13]: 479.384 | CRL7250_AUC [4, 14]: 462.86 | HEK293T_AUC [5, 15]: 474.014 | MCC26_AUC [6, 16]: 489.842 | MKL2_AUC [7, 17]: 427.388 | UISO_AUC [8, 18]: 483.595 | HACAT_AUC [9, 19]: 475.403 | WAGA_AUC [10, 20]: 440.562

COc1cc(C(=O)NCc2ccc(OCCN(C)C)cc2)cc(OC)c1OC [Trimethobenzamide hydrochloride]
MCC13_AUC [1, 11]: 447.793 | MKL1_AUC [2, 12]: 452.093 | NIH3T3_AUC [3, 13]: 459.509 | CRL7250_AUC [4, 14]: 477.417 | HEK293T_AUC [5, 15]: 452.936 | MCC26_AUC [6, 16]: 425.084 | MKL2_AUC [7, 17]: 453.926 | UISO_AUC [8, 18]: 426.826 | HACAT_AUC [9, 19]: 491.547 | WAGA_AUC [10, 20]: 468.296

CCOC(=O)[C@H](CCc1ccccc1)N[C@@H](C)C(=O)N1CCC[C@H]1C(=O)O [Enalapril maleate]
MCC13_AUC [1, 11]: 497.832 | MKL1_AUC [2, 12]: 398.754 | NIH3T3_AUC [3, 13]: 481.903 | CRL7250_AUC [4, 14]: 468.406 | HEK293T_AUC [5, 15]: 479.159 | MCC26_AUC [6, 16]: 486.615 | MKL2_AUC [7, 17]: 341.505 | UISO_AUC [8, 18]: 510.45 | HACAT_AUC [9, 19]: 461.773 | WAGA_AUC [10, 20]: 389.514

C[N+]1(C)[C@@H]2C[C@@H](OC(=O)[C@H](CO)c3ccccc3)C[C@H]1[C@@H]1O[C@@H]12 [Scopolamine methylbromide, reference compound]
Area under the dose-response curve (AUC) MCC13 [1, 21]: 481.8 | Area under the dose-response curve (AUC) MKL-1 [2, 21]: 484.0 | Area under the dose-response curve (AUC) NIH3T3 [3, 21]: 468.1 | Area under the dose-response curve (AUC) CRL7250 [4, 21]: 474.6 | Area under the dose-response curve (AUC) HEK293T [5, 21]: 479.5 | Area under the dose-response curve (AUC) MCC26 [6, 21]: 475.2 | Area under the dose-response curve (AUC) MKL-2 [7, 21]: 496.7 | Area under the dose-response curve (AUC) UISO [8, 21]: 492.6 | Area under the dose-response curve (AUC) HACAT [9, 21]: 476.9 | Area under the dose-response curve (AUC) WAGA [10, 21]: 491.2

CS(=O)(=O)Oc1ccc2c(NC(N)=O)c(C(=O)c3ccc(Cl)cc3Cl)oc2c1 [Lirimilast]
MCC13_AUC [1]: 475.91 | MKL1_AUC [2]: 416.805 | NIH3T3_AUC [3]: 472.494 | CRL7250_AUC [4]: 477.656 | HEK293T_AUC [5]: 473.552 | MCC26_AUC [6]: 450.578 | MKL2_AUC [7]: 353.495 | UISO_AUC [8]: 491.115 | HACAT_AUC [9]: 475.167 | WAGA_AUC [10]: 295.464
